This is an account of results in patent US11952362B2, “Compositions and methods for treating epigenetic disease” (The Regents of the University of California, priority 2018, dated 2024).

The subject of one assay is TNBS colitis. The experiment in a line: TNBS colitis in mice. Format: in vivo. Conditions: for overall score: overall efficacy. How it is done:
Male C57BL/6J mice 8-10 weeks old were purchased from The Jackson Laboratory (Sacramento, CA, USA). Mice were housed 4 per cage, maintained on a 12:12 hour light-dark cycle and given access to food and water ad libitum. Following an acclimatization period of 3 to 5 days, trinitrobenzene sulfonic acid (TNBS, Millipore Sigma, St. Louis, MO, USA) colitis was induced by intracolonic (i.c.) injection of 0.05 ml TNBS solution (5 mg in 40% ethanol) via a polyethylene cannula (BD Intramedic PE-20 tubing, Thermo Fisher Scientific, Santa Clara, CA, USA) inserted 3.5 cm from the anal verge under isoflurane anesthesia (4% in O2 induction, 2.5-3% maintenance). Control mice received an injection of 40% ethanol (0.05 ml, i.c.). To test the effectiveness of the HDAC analogs, mice received a daily injection (0.1 ml, i.c.) of a selective HDAC class II inhibitor analog (50 mg/kg MJK001-013) or vehicle (5% dimethyl sulfoxide, Millipore Sigma) beginning one day prior to TNBS colitis induction (day −1) for a period of 5 days. Separate groups of mice received HDAC inhibitors or vehicle administered by daily oral gavage (50 mg/kg, 0.25 ml, p.o.). All analogs tested were first dissolved in dimethyl sulfoxide (DMSO) with rapid vortexing and subsequent dilution to 5% in sterile phosphate buffered saline (PBS; Gibco, Thermo Fisher Scientific). Vehicle contained 5% DMSO in sterile PBS. Prior to use, all solids were stored in amber (light-blocking) storage vials at 4° C. On the first day of administration, stock solutions were prepared, aliquoted and stored at −20° C. for daily use. Upon thawing, each aliquot was vortexed prior to intracolonic injection (via a polyethylene cannula) or oral gavage (20 ga×38 mm, Instech, Thermo Fisher Scientific). Following all in vivo experiments, animals were euthanized on day 4 by CO2 inhalation and cervical dislocation and the distal colons removed for further study.
Disease severity was assessed by weight loss and measurement of colon length and determination of clinical and histological damage scores on day 4 of the protocol. Briefly, clinical scores were calculated on a scale of 0-3 for degree of weight loss, bleeding, stool consistency and presence of rectal prolapse. Sections of colon (5 μm) fixed in 10% formalin, paraffin-embedded and stained with hematoxylin and eosin (H&E) were used for histological scoring using an AxioImager. Z1 microscope equipped with AxioVision software version 4.6 (Zeiss, Jena, Germany). Scoring was performed by two independent investigators blinded to the treatment conditions and resulting scores averaged. Scores were assigned based on the degree of crypt damage (0-4), polymorphonuclear neutrophil (PMN) infiltrate (0-3), erosion (0-3), and edema (0-3).
Statistical analyses were performed using GraphPad Prism (Version 5.0a; GraphPad Software, La Jolla, CA, USA). Differences were determined by unpaired t-test, 1-way analysis of variance, or a 2-way analysis of variance with Tukey's post-test. A p value <0.05 was considered to be statistically significant. Data presented are means±SEM for n animals.
Novel chemical HDAC inhibitors were developed aiming to target specific isoforms of the HDAC Class IIA members. Overall, as shown above, compounds have been synthesized, named MJK-001, -002, -003, -004, -005, -006, -007, -008, -009, -010, -011, -012 & -013. The effect of selective HDAC class IIA isoform inhibition during development of colitis in mice in vivo during TNBS administration was assessed. This mouse model is known to recapitulate many features of human Crohn's Disease. Mice received either an intracolonic (i.c.) injection or oral delivery (p.o.) of the MJK compounds once daily for a period of 5 days and health status, weight loss, and disease activity were monitored. Mice (male C57BL/6J, 8-10 wks old) are weighed and monitored daily. On the final day, blood, feces, and colonic samples for RNA, protein and histology are collected for downstream analysis. […]

Another assay concerns the target T1, HDAC4 (Homo sapiens, UniProt P56524).
T1 construct: purchased BPS Bioscience 50064
The assay is described as follows: Fluorogenic HDAC4 activity assay. Format: biochemical. Conditions: fluorogenic assay kit, in words. How it is done:
To measure the effects of MJK-001, -004, -006 and -008 on HDAC4 & 9 activity fluorogenic HDAC9 (#50069) and HDAC4 (#50064) assay kits (BPS Bioscience) were used. Briefly, these assays consist of two steps; in the first one the HDAC fluorometric substrate containing an acetylated lysine side chain is incubated with purified HDAC9. In the second step, the deacetylation sensitizes the substrate so subsequent treatment with the lysine developer produces a fluorophore that was measured by a fluorescence reader.

Where [1] appears, read: i.c. administration, 50 mg/kg daily for 5 days, day 4, vs vehicle-treated mice, 50 mg/kg.
[2] abbreviates: i.c. administration, 50 mg/kg daily for 5 days, day 4, vs vehicle-treated mice, listed as MJK-001, 50 mg/kg.
Where [3] appears, read: i.c. administration, 50 mg/kg daily for 5 days, day 4, vs vehicle-treated mice, listed as MJK-004, 50 mg/kg.
[4] abbreviates: i.c. administration, 50 mg/kg daily for 5 days, day 4, vs vehicle-treated mice, hydrochloride, 50 mg/kg.
Setting [5] is: i.c. administration, 50 mg/kg daily for 5 days, day 4, vs vehicle-treated mice, listed as MJK-008, hydrochloride, 50 mg/kg.
Setting [6] is: oral administration (p.o., 50 mg/kg daily).

SMILES strings stand for the structures.

T1 sequence (P56524 whole entry): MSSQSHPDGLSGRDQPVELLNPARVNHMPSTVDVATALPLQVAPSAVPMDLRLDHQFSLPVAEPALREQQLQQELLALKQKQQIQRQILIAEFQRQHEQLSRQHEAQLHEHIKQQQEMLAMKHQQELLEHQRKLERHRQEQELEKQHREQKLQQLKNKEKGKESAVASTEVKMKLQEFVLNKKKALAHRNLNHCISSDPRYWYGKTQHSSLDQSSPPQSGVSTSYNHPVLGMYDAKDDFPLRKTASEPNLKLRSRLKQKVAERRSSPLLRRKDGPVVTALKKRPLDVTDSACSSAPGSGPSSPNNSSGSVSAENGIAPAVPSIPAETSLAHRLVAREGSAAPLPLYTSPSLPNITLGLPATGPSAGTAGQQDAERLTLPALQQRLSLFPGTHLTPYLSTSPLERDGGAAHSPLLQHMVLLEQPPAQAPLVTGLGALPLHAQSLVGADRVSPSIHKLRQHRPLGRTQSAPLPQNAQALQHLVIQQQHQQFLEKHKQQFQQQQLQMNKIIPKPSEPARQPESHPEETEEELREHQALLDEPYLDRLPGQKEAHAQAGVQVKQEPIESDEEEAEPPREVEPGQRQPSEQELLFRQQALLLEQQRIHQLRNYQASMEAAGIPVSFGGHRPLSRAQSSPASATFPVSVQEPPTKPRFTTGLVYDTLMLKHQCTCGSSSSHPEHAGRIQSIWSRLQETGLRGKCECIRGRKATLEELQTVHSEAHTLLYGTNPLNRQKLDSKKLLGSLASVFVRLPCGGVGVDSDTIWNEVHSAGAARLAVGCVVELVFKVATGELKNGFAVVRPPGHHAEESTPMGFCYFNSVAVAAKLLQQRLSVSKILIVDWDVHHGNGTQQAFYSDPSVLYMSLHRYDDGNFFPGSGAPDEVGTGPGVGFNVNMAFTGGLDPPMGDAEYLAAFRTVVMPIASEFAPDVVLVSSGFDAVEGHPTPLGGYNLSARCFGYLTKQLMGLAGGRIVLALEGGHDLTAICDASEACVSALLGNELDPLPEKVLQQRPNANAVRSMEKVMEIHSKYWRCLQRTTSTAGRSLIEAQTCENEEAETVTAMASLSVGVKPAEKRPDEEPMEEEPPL

`Cn1c(/C=C/C(=O)NO)ccc1/C=C/C(=O)c1cccc(F)c1` [MJK001, (E)-3-(5-((E)-3-(3-Fluorophenyl)-3-oxoprop-1-en-1-yl)-1-methyl-1H-pyrrol-2-yl)-N-hydro-xyacrylamide]: the histological score result with TNBS colitis (i.c. administration, 50 mg/kg daily for 5 days, day 4, vs vehicle-treated mice) is reported as “♦♦”. Besides, in the assay with TNBS colitis (setting [1]), the clinical score entry is given as “♦♦” and the colon length entry is recorded as “♦♦”. In the assay with TNBS colitis (setting [2]), the clinical score entry is listed as “statistical significance in the reduction of the clinical score” and the colon length entry was “increase of colon length”. In addition, the “HDAC4 activity / specificity” value on HDAC4 is “partially blocks”.

`Cn1c(/C=C/C(=O)NO)ccc1/C=C/C(=O)c1cccs1` [MJK004, (E)-N-hydroxy-3-(1-methyl-5-((E)-3-oxo-3-(thiophen-2-yl)prop-1-en-1-yl)-1H-pyrrol-2-yl)acrylamide]: in the assay on TNBS colitis (setting [1]), the clinical score result is listed as “♦♦” and the colon length result was “ns”. Also, in the assay on TNBS colitis (setting [3]), the clinical score result is recorded as “reduction in clinical scoring” and the colon length result is “did not alter colon length”. Besides, the “HDAC4 activity / specificity” value on HDAC4 was “high specificity for HDAC4”.

Regarding `Cn1c(/C=C/C(=O)NO)ccc1/C=C/C(=O)c1cccnc1` [MJK006, (E)-N-hydroxy-3-(1-methyl-5-((E)-3-oxo-3-(pyridin-3-yl)prop-1-en-1-yl)-1H-pyrrol-2-yl)acrylamide], in the assay on TNBS colitis (setting [1]), the clinical score entry is listed as “♦♦”, the colon length result was “♦♦” and the histological score entry is listed as “♦♦♦”. The histological score result in the assay on TNBS colitis (i.c. administration, 50 mg/kg daily for 5 days, day 4, vs vehicle-treated mice, listed as MJK-006, 50 mg/kg) is given as “significant differences”. Moreover, in the assay with TNBS colitis (i.c. administration), the overall score entry is “substantial effect on suppressing TNBS-induced colitis”. On HDAC4, the “HDAC4 activity / specificity” value is listed as “decreased HDAC4 specificity”.

In the case of `Cl.Cn1c(/C=C/C(=O)NO)ccc1/C=C/C(=O)c1cccnc1` [MJK008, (E)-N-Hydroxy-3-(1-methyl-5-((E)-3-oxo-3-(pyridin-3-yl)prop-1-en-1-yl)-1H-pyrrol-2-yl)ac-rylamide hydrochloride], in the assay with TNBS colitis (setting [4]), the clinical score result was “♦♦”, the colon length result is given as “♦” and the histological score result was “♦♦♦”. Also, in the assay on TNBS colitis (setting [5]), the clinical score entry is “decreasing the clinical and histological score”; the colon length entry is “significant effect in preserving colon length”; the histological score result is “decreasing the clinical and histological score”. The overall score result in the assay on TNBS colitis (i.c. administration, hydrochloride) is “substantial effect on suppressing TNBS-induced colitis”. Moreover, in the assay with TNBS colitis (setting [6]), the clinical score result is given as “highly efficient in reducing the clinical score”, the colon length entry is reported as “preserving colon length” and the histology score entry is given as “decreasing the histology score”. The “HDAC4 activity / specificity” value at HDAC4 is listed as “decreased HDAC4 specificity”.
